These results are taken from ChEMBL document CHEMBL1201862, “PubChem BioAssay data set” (2004).

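Cells were grown in 96-well plates and exposed to each compound for 48 hours at five concentrations; endpoints were interpolated linearly between bracketing concentrations, or set to the highest concentration if not reached. The concentration for 50% growth inhibition is given as GI50.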 Activity calls are given as the source filed them. No stated cut-off is given here; in the data, active = GI50 up to about 1.1 µM and inactive = higher.

Among the test systems are CAKI-1; CCRF-CEM; HCT-116; M14; NCI-H226; OVCAR-4; SF-295; SK-MEL-2; SK-MEL-5; SK-OV-3; SN12C; SNB-75; U-251; UACC-62; UO-31; A498.
Common to all, as to assay: growth of human tumour cells (NCI), 48 h

For `COc1ccc2[nH]cc(CCNC(=O)[C@](O)(Cc3cn(C)c4ccccc34)[C@@]3(O)OCC(O)C3O)c2c1` (some centres not stated), the GI50 with CAKI-1 is > 100 µM (inactive); in the assay on CCRF-CEM it was 35.8 µM (inactive); in the assay with HCT-116, 47.3 µM (inactive); with M14 it was > 100 µM (inactive); in the assay with NCI-H226, > 100 µM (inactive); in the assay on OVCAR-4, > 100 µM (inactive). The GI50 in the assay with SF-295 was > 100 µM (inactive); in the assay with SK-MEL-2 it was > 100 µM (inactive); with SK-MEL-5, > 100 µM (inactive); in the assay with SK-OV-3, > 100 µM (inactive); in the assay on SN12C it was > 100 µM (inactive); in the assay on SNB-75, 38.5 µM (inactive). Moreover, the GI50 was > 100 µM (inactive) with U-251 and 58.9 µM (inactive) with UACC-62.

As to `O=C1[C@@H]2C3c4ccccc4C([C@@H]2C(=O)N1c1ccccc1)S3(=O)=O`, the GI50 was 32.1 µM (inactive) in the assay with CCRF-CEM; > 100 µM (inactive) with HCT-116; > 100 µM (inactive) in the assay on M14; > 100 µM (inactive) in the assay on NCI-H226; 81.7 µM (inactive) with SF-295; > 100 µM (inactive) in the assay with SK-MEL-2. Further, the GI50 with SK-MEL-5 was > 100 µM (inactive); in the assay with SK-OV-3, > 100 µM (inactive); with SN12C it was 61.5 µM (inactive); with SNB-75 it was 65.3 µM (inactive); in the assay with U-251 it was 47.2 µM (inactive); in the assay on UACC-62, > 100 µM (inactive). For the same molecule, the GI50 in the assay on UO-31 is > 100 µM (inactive).

As to `CN(C)CCNC(=O)c1cc2ccccc2c2nc3ccccc3nc12`, the GI50 in the assay with A498 was 1.14 µM (inactive); in the assay with CAKI-1, 2.67 µM (inactive); with HCT-116, 0.373 µM (active); with M14, 1.75 µM (inactive); with NCI-H226, 0.841 µM (active); with OVCAR-4 it was 0.792 µM (active). The GI50 is 0.575 µM (active) with SF-295; 1.37 µM (inactive) with SK-MEL-2; 1.79 µM (inactive) in the assay on SK-MEL-5; 4.97 µM (inactive) in the assay on SK-OV-3; 0.736 µM (active) in the assay with SN12C; 1.19 µM (inactive) in the assay on SNB-75. For the same molecule, the GI50 in the assay on U-251 is 0.986 µM (active); in the assay with UACC-62 it was 2 µM (inactive); in the assay on UO-31, 1.8 µM (inactive).

For `CC[C@H]1CC(=O)c2c(cc3c(c2O)C(=O)c2ccccc2C3=O)[C@@]1(C#N)C(=O)OC(C)(C)C`, the GI50 in the assay on HCT-116 was 2.7 µM (inactive); in the assay with M14 it was 3.65 µM (inactive); in the assay on NCI-H226, 3.32 µM (inactive); with SF-295 it was 4.47 µM (inactive); with SK-MEL-2, 2.17 µM (inactive); with SK-MEL-5 it was 1.9 µM (inactive). Besides, the GI50 in the assay with SK-OV-3 is 3.65 µM (inactive); in the assay with SN12C it was 3.97 µM (inactive); with SNB-75, 4.1 µM (inactive); in the assay with U-251, 3.48 µM (inactive); with UACC-62, 4.35 µM (inactive); in the assay on UO-31, 2.69 µM (inactive).

As to `O=C1CC[C@H](NC(=O)Cc2ccccc2)C(=O)N1` [ANTINEOPLASTON A10], the GI50 in the assay on CAKI-1, in the assay on CCRF-CEM, in the assay on HCT-116, with M14, in the assay on NCI-H226 and in the assay on OVCAR-4 was > 1250 µM (inactive) in each case. Moreover, the GI50 was > 1250 µM (inactive) in the assay with SF-295; > 1250 µM (inactive) in the assay with SK-MEL-2; > 1250 µM (inactive) with SK-OV-3; > 1250 µM (inactive) in the assay on SN12C; 877 µM (inactive) in the assay with SNB-75; > 1250 µM (inactive) in the assay on U-251. Further, the GI50 with UACC-62 and with UO-31 was > 1250 µM (inactive) each time.

As to `COC(=O)c1ccc(C=C(C#N)C#N)cc1`, the GI50 in the assay with A498 was > 100 µM (inactive); in the assay with CAKI-1, 30.7 µM (inactive); in the assay on CCRF-CEM it was 21.5 µM (inactive); in the assay on HCT-116, 17.1 µM (inactive); with M14, 16.5 µM (inactive); in the assay with NCI-H226, 24 µM (inactive). Besides, the GI50 is 20.6 µM (inactive) in the assay with OVCAR-4; 32.4 µM (inactive) with SF-295; 18.4 µM (inactive) with SK-MEL-2; 17.9 µM (inactive) in the assay with SK-MEL-5; > 100 µM (inactive) in the assay on SK-OV-3; 19.3 µM (inactive) in the assay with SN12C. The GI50 in the assay with SNB-75 was 27.4 µM (inactive); in the assay with U-251 it was 24.4 µM (inactive); in the assay on UACC-62, 20.8 µM (inactive).

In the case of `CCOC(=O)C12CCCC1(O)N(NC(N)=O)C(C)=C2C(=O)OC` (configuration not stated), the GI50 with A498, in the assay with CAKI-1, in the assay on CCRF-CEM, with HCT-116, in the assay on M14 and in the assay with NCI-H226 was > 100 µM (inactive) throughout. Further, the GI50 in the assay on OVCAR-4, in the assay with SF-295, with SK-MEL-2, in the assay with SK-OV-3, in the assay on SN12C and in the assay with U-251 was > 100 µM (inactive) each time. For the same molecule, the GI50 with UACC-62 and with UO-31 was > 100 µM (inactive) each time.

With `COc1ccc(C(=O)C(c2ccc(OCc3ccccc3)cc2)c2ccc(OCc3ccccc3)cc2)cc1`, the GI50 in the assay with CAKI-1, with CCRF-CEM, in the assay with HCT-116, with M14, with NCI-H226 and in the assay on OVCAR-4 was > 100 µM (inactive) throughout. Besides, the GI50 in the assay with SF-295, with SK-MEL-2, with SK-MEL-5, in the assay on SK-OV-3, with SN12C and with SNB-75 was > 100 µM (inactive) each time. The GI50 with U-251, in the assay with UACC-62 and in the assay with UO-31 was > 100 µM (inactive) throughout.

As for `COc1ccc(C(=C(C#N)C#N)c2ccc(OC)cc2)cc1`, the GI50 in the assay on A498 was > 100 µM (inactive); with CAKI-1, > 100 µM (inactive); in the assay with CCRF-CEM it was 33 µM (inactive); in the assay with HCT-116, > 100 µM (inactive); with M14, > 100 µM (inactive); with NCI-H226, > 100 µM (inactive). The GI50 in the assay on OVCAR-4, in the assay with SF-295, in the assay on SK-MEL-2, with SN12C, in the assay on U-251 and with UACC-62 was > 100 µM (inactive) each time. The GI50 in the assay on UO-31 is > 100 µM (inactive).

Consider `Nc1ccc2nc(Nc3ccc(F)cc3)cnc2c1`, for which the GI50 with CAKI-1 is > 100 µM (inactive); with CCRF-CEM, 30.5 µM (inactive); with HCT-116, > 100 µM (inactive); with M14 it was > 100 µM (inactive); in the assay on NCI-H226 it was > 100 µM (inactive); with OVCAR-4, > 100 µM (inactive). In addition, the GI50 was > 100 µM (inactive) in the assay with SF-295; > 100 µM (inactive) in the assay on SK-MEL-2; > 100 µM (inactive) in the assay with SK-MEL-5; > 100 µM (inactive) in the assay with SN12C; > 100 µM (inactive) in the assay with SNB-75; 47.2 µM (inactive) in the assay with UO-31.

`O=C(N/C(=C\c1ccc(Cl)cc1)c1nc2ccccc2[nH]1)c1ccccc1`: the GI50 in the assay with A498 is 21.8 µM (inactive); with CAKI-1, 20.6 µM (inactive); in the assay with CCRF-CEM, 20 µM (inactive); with HCT-116, 13.7 µM (inactive); with M14, 18.7 µM (inactive); in the assay with NCI-H226, 22.2 µM (inactive). For the same molecule, the GI50 in the assay on OVCAR-4 was 14.7 µM (inactive); with SK-MEL-2, 19.1 µM (inactive); in the assay with SK-MEL-5, 20.1 µM (inactive); with SK-OV-3 it was 37.1 µM (inactive); in the assay on SN12C, 21.9 µM (inactive); in the assay on SNB-75, 19.7 µM (inactive). For the same molecule, the GI50 in the assay with U-251 was 22.2 µM (inactive); in the assay with UACC-62 it was 16 µM (inactive); in the assay on UO-31, 18.8 µM (inactive).

For `C=CCC12CCC(=O)[C@@]1(C)CC=C(O)C2=O` (some centres not stated), the GI50 in the assay with A498, in the assay on CAKI-1, with CCRF-CEM, in the assay on HCT-116, in the assay with M14 and in the assay with NCI-H226 was > 100 µM (inactive) throughout. Further, the GI50 in the assay with OVCAR-4, with SF-295, in the assay with SK-MEL-5, in the assay on SK-OV-3, in the assay on SN12C and with SNB-75 was > 100 µM (inactive) each time. Besides, the GI50 in the assay on U-251, in the assay on UACC-62 and with UO-31 was > 100 µM (inactive) throughout.

As to `COC1=CC(=O)C2(C=C1OC)OC[C@H]1Oc3c(ccc4c3C=CC(C)(C)O4)C(=O)[C@H]12` (some centres not stated), the GI50 with A498 was 63.7 µM (inactive); in the assay on CCRF-CEM, 28.1 µM (inactive); in the assay on HCT-116, 28.4 µM (inactive); in the assay on M14 it was 41.7 µM (inactive); in the assay on SK-MEL-2, 45.2 µM (inactive); in the assay with SK-OV-3 it was 70.1 µM (inactive). Moreover, the GI50 with SNB-75 is 32.1 µM (inactive); with U-251, 56.2 µM (inactive); in the assay with UACC-62 it was 47.1 µM (inactive); in the assay with UO-31, 60.5 µM (inactive).

For `COc1ccc2c(c1)O[C@@H]1c3ccc(OC)cc3OC[C@H]21`, the GI50 in the assay with CAKI-1 was 29.6 µM (inactive); in the assay with CCRF-CEM, 27.2 µM (inactive); in the assay with HCT-116, 27.7 µM (inactive); in the assay with M14, 26.9 µM (inactive); in the assay on NCI-H226, 21.5 µM (inactive); in the assay on OVCAR-4 it was 29.2 µM (inactive). For the same molecule, the GI50 with SF-295 was 26.9 µM (inactive); with SK-MEL-2, 23 µM (inactive); in the assay on SK-MEL-5, 17.4 µM (inactive); in the assay on SK-OV-3, 57 µM (inactive); in the assay on SN12C, 55.2 µM (inactive); in the assay on SNB-75 it was 16 µM (inactive). For the same molecule, the GI50 in the assay with U-251 was 24.2 µM (inactive); in the assay with UACC-62, 37.8 µM (inactive); in the assay on UO-31 it was 30.1 µM (inactive).
